From PubChem BioAssay (NCI)
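How tested: cells in 96-well plates exposed to compound for 48 hours at five concentrations. TGI: total growth inhibition.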

Tests used:
Assay in all cases: NCI-60 cell line screen, 48 h
786-0 renal = system: 786-0 renal
A498 renal = system: A498 renal
A549 NSCLC = system: A549 NSCLC
ACHN renal = system: ACHN renal
CAKI-1 renal = system: CAKI-1 renal
CCRF-CEM leukemia = system: CCRF-CEM leukemia
COLO 205 colon = system: COLO 205 colon
DLD-1 colon = system: DLD-1 colon
DMS 273 small cell lung = system: DMS 273 small cell lung
HCC-2998 colon = system: HCC-2998 colon
HCT-116 colon = system: HCT-116 colon
HCT-15 colon = system: HCT-15 colon
HL-60(TB) leukemia = system: HL-60(TB) leukemia
HOP-18 NSCLC = system: HOP-18 NSCLC
HOP-62 NSCLC = system: HOP-62 NSCLC
HOP-92 NSCLC = system: HOP-92 NSCLC
HT29 colon = system: HT29 colon
IGROV1 ovarian = system: IGROV1 ovarian
K-562 leukemia = system: K-562 leukemia
KM12 colon = system: KM12 colon
KM20L2 colon = system: KM20L2 colon
LOX IMVI melanoma = system: LOX IMVI melanoma
LXFL 529 NSCLC = system: LXFL 529 NSCLC
M14 melanoma = system: M14 melanoma
M19-MEL melanoma = system: M19-MEL melanoma
MALME-3M melanoma = system: MALME-3M melanoma
MOLT-4 leukemia = system: MOLT-4 leukemia
NCI-H23 lung = system: NCI-H23 lung
NCI-H460 lung = system: NCI-H460 lung
NCI-H522 lung = system: NCI-H522 lung
OVCAR-3 ovarian = system: OVCAR-3 ovarian
OVCAR-4 ovarian = system: OVCAR-4 ovarian
OVCAR-5 ovarian = system: OVCAR-5 ovarian
OVCAR-8 ovarian = system: OVCAR-8 ovarian
RPMI-8226 leukemia = system: RPMI-8226 leukemia
RXF 393 renal = system: RXF 393 renal
SF-268 CNS = system: SF-268 CNS
SF-295 CNS = system: SF-295 CNS
SF-539 CNS = system: SF-539 CNS
SK-MEL-2 melanoma = system: SK-MEL-2 melanoma
SK-MEL-28 melanoma = system: SK-MEL-28 melanoma
SK-MEL-5 melanoma = system: SK-MEL-5 melanoma
SK-OV-3 ovarian = system: SK-OV-3 ovarian
SN12C renal = system: SN12C renal
SNB-19 CNS = system: SNB-19 CNS
SNB-75 CNS = system: SNB-75 CNS
SR leukemia = system: SR leukemia
SW-620 colon = system: SW-620 colon
TK-10 renal = system: TK-10 renal
U251 CNS = system: U251 CNS
UACC-62 melanoma = system: UACC-62 melanoma
UO-31 renal = system: UO-31 renal
DMS 114 small cell lung = system: DMS 114 small cell lung
EKVX NSCLC = system: EKVX NSCLC
NCI-H226 lung = system: NCI-H226 lung
SNB-78 CNS = system: SNB-78 CNS
UACC-257 melanoma = system: UACC-257 melanoma
XF 498 CNS = system: XF 498 CNS

NC1=NS(=O)(=O)Nc2nc(-c3cccs3)[nH]c21
TGI (786-0 renal): > 100 µM
TGI (A498 renal): > 100 µM
TGI (A549 NSCLC): > 100 µM
TGI (ACHN renal): > 100 µM
TGI (CAKI-1 renal): > 100 µM
TGI (CCRF-CEM leukemia): > 100 µM
TGI (COLO 205 colon): > 100 µM
TGI (DLD-1 colon): > 100 µM
TGI (DMS 273 small cell lung): > 100 µM
TGI (HCC-2998 colon): > 100 µM
TGI (HCT-116 colon): > 100 µM
TGI (HCT-15 colon): > 100 µM
TGI (HL-60(TB) leukemia): > 100 µM
TGI (HOP-18 NSCLC): > 100 µM
TGI (HOP-62 NSCLC): > 100 µM
TGI (HOP-92 NSCLC): > 100 µM
TGI (HT29 colon): > 100 µM
TGI (IGROV1 ovarian): > 100 µM
TGI (K-562 leukemia): > 100 µM
TGI (KM12 colon): > 100 µM
TGI (KM20L2 colon): > 100 µM
TGI (LOX IMVI melanoma): > 100 µM
TGI (LXFL 529 NSCLC): > 100 µM
TGI (M14 melanoma): > 100 µM
TGI (M19-MEL melanoma): > 100 µM
TGI (MALME-3M melanoma): > 100 µM
TGI (MOLT-4 leukemia): > 100 µM
TGI (NCI-H23 lung): > 100 µM
TGI (NCI-H460 lung): > 100 µM
TGI (NCI-H522 lung): > 100 µM
TGI (OVCAR-3 ovarian): > 100 µM
TGI (OVCAR-4 ovarian): > 100 µM
TGI (OVCAR-5 ovarian): > 100 µM
TGI (OVCAR-8 ovarian): > 100 µM
TGI (RPMI-8226 leukemia): > 100 µM
TGI (RXF 393 renal): > 100 µM
TGI (SF-268 CNS): > 100 µM
TGI (SF-295 CNS): > 100 µM
TGI (SF-539 CNS): > 100 µM
TGI (SK-MEL-2 melanoma): > 100 µM
TGI (SK-MEL-28 melanoma): > 100 µM
TGI (SK-MEL-5 melanoma): > 100 µM
TGI (SK-OV-3 ovarian): > 100 µM
TGI (SN12C renal): > 100 µM
TGI (SNB-19 CNS): > 100 µM
TGI (SNB-75 CNS): > 100 µM
TGI (SR leukemia): > 100 µM
TGI (SW-620 colon): > 100 µM
TGI (TK-10 renal): > 100 µM
TGI (U251 CNS): > 100 µM
TGI (UACC-62 melanoma): > 100 µM
TGI (UO-31 renal): > 100 µM

CC12C(=O)N(CCN)C(=O)C1C1c3ccccc3C2c2ccccc21 (stereo not given)
TGI (786-0 renal): > 100 µM
TGI (A498 renal): > 100 µM
TGI (A549 NSCLC): > 100 µM
TGI (ACHN renal): > 100 µM
TGI (CAKI-1 renal): > 100 µM
TGI (CCRF-CEM leukemia): > 100 µM
TGI (COLO 205 colon): > 100 µM
TGI (DLD-1 colon): > 100 µM
TGI (DMS 114 small cell lung): > 100 µM
TGI (DMS 273 small cell lung): > 100 µM
TGI (EKVX NSCLC): > 100 µM
TGI (HCC-2998 colon): > 100 µM
TGI (HCT-116 colon): > 100 µM
TGI (HCT-15 colon): > 100 µM
TGI (HL-60(TB) leukemia): > 100 µM
TGI (HOP-18 NSCLC): > 100 µM
TGI (HOP-62 NSCLC): > 100 µM
TGI (HOP-92 NSCLC): 98.4 µM
TGI (HT29 colon): > 100 µM
TGI (IGROV1 ovarian): > 100 µM
TGI (K-562 leukemia): > 100 µM
TGI (KM12 colon): > 100 µM
TGI (KM20L2 colon): > 100 µM
TGI (LXFL 529 NSCLC): > 100 µM
TGI (M14 melanoma): > 100 µM
TGI (M19-MEL melanoma): > 100 µM
TGI (MALME-3M melanoma): > 100 µM
TGI (MOLT-4 leukemia): > 100 µM
TGI (NCI-H226 lung): > 100 µM
TGI (NCI-H23 lung): > 100 µM
TGI (NCI-H460 lung): > 100 µM
TGI (NCI-H522 lung): > 100 µM
TGI (OVCAR-3 ovarian): > 100 µM
TGI (OVCAR-4 ovarian): > 100 µM
TGI (OVCAR-5 ovarian): > 100 µM
TGI (OVCAR-8 ovarian): > 100 µM
TGI (RPMI-8226 leukemia): > 100 µM
TGI (SF-268 CNS): > 100 µM
TGI (SF-295 CNS): > 100 µM
TGI (SF-539 CNS): > 100 µM
TGI (SK-MEL-2 melanoma): > 100 µM
TGI (SK-MEL-28 melanoma): > 100 µM
TGI (SK-MEL-5 melanoma): > 100 µM
TGI (SK-OV-3 ovarian): > 100 µM
TGI (SN12C renal): > 100 µM
TGI (SNB-19 CNS): > 100 µM
TGI (SNB-75 CNS): > 100 µM
TGI (SNB-78 CNS): > 100 µM
TGI (SW-620 colon): > 100 µM
TGI (TK-10 renal): > 100 µM
TGI (U251 CNS): > 100 µM
TGI (UACC-257 melanoma): > 100 µM
TGI (UACC-62 melanoma): > 100 µM
TGI (UO-31 renal): > 100 µM
TGI (XF 498 CNS): > 100 µM

CCOC(=O)N1CCC(=O)C[C@@H]1C/C=C/P1(=O)O[C@H](c2ccccc2)C(C)N1C(C)C (stereo not given in full)
TGI (786-0 renal): > 100 µM
TGI (A549 NSCLC): > 100 µM
TGI (ACHN renal): > 100 µM
TGI (CAKI-1 renal): > 100 µM
TGI (DMS 114 small cell lung): > 100 µM
TGI (DMS 273 small cell lung): > 100 µM
TGI (EKVX NSCLC): > 100 µM
TGI (HCC-2998 colon): > 100 µM
TGI (HCT-116 colon): > 100 µM
TGI (HCT-15 colon): > 100 µM
TGI (HOP-92 NSCLC): > 100 µM
TGI (HT29 colon): > 100 µM
TGI (IGROV1 ovarian): > 100 µM
TGI (K-562 leukemia): > 100 µM
TGI (KM12 colon): > 100 µM
TGI (KM20L2 colon): > 100 µM
TGI (LXFL 529 NSCLC): > 100 µM
TGI (M19-MEL melanoma): > 100 µM
TGI (MALME-3M melanoma): > 100 µM
TGI (MOLT-4 leukemia): > 100 µM
TGI (NCI-H226 lung): > 100 µM
TGI (NCI-H23 lung): > 100 µM
TGI (NCI-H522 lung): > 100 µM
TGI (OVCAR-3 ovarian): > 100 µM
TGI (OVCAR-4 ovarian): > 100 µM
TGI (OVCAR-5 ovarian): > 100 µM
TGI (OVCAR-8 ovarian): > 100 µM
TGI (RPMI-8226 leukemia): > 100 µM
TGI (RXF 393 renal): > 100 µM
TGI (SF-268 CNS): > 100 µM
TGI (SF-295 CNS): > 100 µM
TGI (SF-539 CNS): > 100 µM
TGI (SK-MEL-2 melanoma): > 100 µM
TGI (SK-MEL-28 melanoma): > 100 µM
TGI (SK-MEL-5 melanoma): > 100 µM
TGI (SK-OV-3 ovarian): > 100 µM
TGI (SN12C renal): > 100 µM
TGI (SNB-19 CNS): > 100 µM
TGI (SNB-75 CNS): > 100 µM
TGI (SNB-78 CNS): > 100 µM
TGI (SR leukemia): > 100 µM
TGI (SW-620 colon): > 100 µM
TGI (TK-10 renal): > 100 µM
TGI (U251 CNS): > 100 µM
TGI (UACC-257 melanoma): > 100 µM
TGI (UACC-62 melanoma): > 100 µM
TGI (UO-31 renal): > 100 µM

O=C1C=C(Nc2ccccc2C(=O)CC(=O)C(=O)Nc2ccc(Cl)c(Cl)c2)c2ccccc2C1=O
TGI (786-0 renal): > 100 µM
TGI (A498 renal): > 100 µM
TGI (A549 NSCLC): > 100 µM
TGI (ACHN renal): > 100 µM
TGI (CAKI-1 renal): > 100 µM
TGI (CCRF-CEM leukemia): > 100 µM
TGI (COLO 205 colon): > 100 µM
TGI (DLD-1 colon): > 100 µM
TGI (DMS 114 small cell lung): 66.7 µM
TGI (HCC-2998 colon): > 100 µM
TGI (HCT-15 colon): > 100 µM
TGI (HOP-62 NSCLC): > 100 µM
TGI (HOP-92 NSCLC): > 100 µM
TGI (HT29 colon): > 100 µM
TGI (IGROV1 ovarian): > 100 µM
TGI (K-562 leukemia): > 100 µM
TGI (KM12 colon): > 100 µM
TGI (M14 melanoma): > 100 µM
TGI (M19-MEL melanoma): 8.96 µM
TGI (MALME-3M melanoma): 29.8 µM
TGI (MOLT-4 leukemia): > 100 µM
TGI (NCI-H226 lung): > 100 µM
TGI (NCI-H23 lung): > 100 µM
TGI (NCI-H460 lung): > 100 µM
TGI (NCI-H522 lung): 54.5 µM
TGI (OVCAR-3 ovarian): > 100 µM
TGI (OVCAR-4 ovarian): > 100 µM
TGI (OVCAR-5 ovarian): > 100 µM
TGI (OVCAR-8 ovarian): > 100 µM
TGI (RPMI-8226 leukemia): > 100 µM
TGI (RXF 393 renal): > 100 µM
TGI (SF-268 CNS): > 100 µM
TGI (SF-295 CNS): > 100 µM
TGI (SF-539 CNS): > 100 µM
TGI (SK-MEL-2 melanoma): > 100 µM
TGI (SK-MEL-28 melanoma): 37.4 µM
TGI (SK-MEL-5 melanoma): 20.4 µM
TGI (SK-OV-3 ovarian): > 100 µM
TGI (SN12C renal): > 100 µM
TGI (SNB-19 CNS): > 100 µM
TGI (SNB-78 CNS): > 100 µM
TGI (SR leukemia): > 100 µM
TGI (U251 CNS): > 100 µM
TGI (UACC-257 melanoma): 47.6 µM
TGI (UACC-62 melanoma): 62.2 µM
TGI (UO-31 renal): > 100 µM
